Reference: patent publication US20250255298A1, “PENETRATION PROMOTER” (IBIDEN CO., LTD., priority 2023, published 2025)

Tested on: Rice (variety: Nipponbare) leaves
Test: Test on penetrability in rice (cut leaves soaked in test penetrant, LC-MS/MS of leaf extract)
Settings: penetration promoter solutions of Examples 1 and 2
Procedure: (§1) A solution obtained by adding 40 μL (20 mg) of pine oil (manufactured by ease Inc.) to 2000 mL of each of the penetration promoter solutions 1 to 8 was used as a terpene test penetrant.
(§2) A liquid obtained by dissolving 450 mg of ground nucleic acid particles (manufactured by Kenkououendan Inc.) in 2000 mL of each of the penetration promoter solutions 1 to 8 was used as a nucleic acid test penetrant.
A liquid obtained by dispersing 100 mg of soybean-derived lecithin (manufactured by FUJIFILM Wako Pure Chemical Corporation) in 2000 mL of each of the penetration promoter solutions 1 to 8 was used as a phospholipid test penetrant. • Penetrability test of each organic substance using test penetrant […]
(§3) The analysis sample was analyzed for the amount of terpene using an LC-MS/MS apparatus (LC part: DIONEX Ultimate3000, MS/MS part: Q Exactive Focus: manufactured by Thermo Fisher Scientific K.K.) under the following conditions. […] Quantification was performed from the MS-peak area value of α-pinene contained in pine oil (manufactured by ease Inc.), and the amounts of terpene penetrated into the intralobar tissue by the penetration promoter solutions 1 to 8 (Examples 1 and 2 and Comparative Examples 1 to 6) were compared. […]

Row | SMILES | penetrability with oleic acid as compared with terpene
1 | CCCCCCCC/C=C\CCCCCCCC(=O)O [oleic acid] | slightly decreased

Tested on: soybean (variety: Fukuyutaka) leaves
Test: Test on penetrability in soybean (absorbent cotton with test penetrant on leaf, LC-MS/MS of leaf extract)
Settings: penetration promoter solutions of Examples 1 and 2
Procedure: as §1, §2
A liquid obtained by dispersing 100 mg of soybean-derived lecithin (manufactured by FUJIFILM Wako Pure Chemical Corporation) in 2000 mL of each of the penetration promoter solutions 1 to 8 was used as a phospholipid test penetrant. • Penetrability test of each organic substance using test penetrant
Four soybean (variety: Fukuyutaka) seeds were seeded, per pot, in a No. 3 pot containing Seeding Soil for Vegetables and Flowers (manufactured by Takii Co., Ltd.). […]
as §3

Row | SMILES | penetrability with oleic acid as compared with terpene
2 | CCCCCCCC/C=C\CCCCCCCC(=O)O [oleic acid] | slightly decreased

Tested on: not given
Test: not given
Settings: indicated as common logarithmic value Log Kow or Log P; cited from earlier work

Row | SMILES | octanol/water partition coefficient
3 | Nc1ncnc2nc[nH]c12 [adenine] | −0.1
4 | Nc1ncnc2c1ncn2[C@@H]1O[C@H](COP(=O)(O)O)[C@@H](O)[C@H]1O [adenosine monophosphate] | −3.1
5 | Nc1ncnc2c1ncn2[C@@H]1O[C@H](CO)[C@@H](O)[C@H]1O [adenosine] | −1.2
6 | C[C@H](N)C(=O)O [alanine] | −2.85
7 | N[C@@H](CS)C(=O)O [cysteine] | −2.49
8 | Nc1cc[nH]c(=O)n1 [cytosine] | −1.73
9 | N[C@@H](CCC(=O)O)C(=O)O [glutamic acid] | −3.69
10 | NC(=O)CC[C@H](N)C(=O)O [glutamine] | −3.64
11 | Nc1nc2nc[nH]c2c(=O)[nH]1 [guanine] | −0.91
12 | Nc1nc2c(ncn2[C@@H]2O[C@H](CO)[C@@H](O)[C@H]2O)c(=O)[nH]1 [guanosine] | −1.9
13 | N[C@@H](Cc1c[nH]cn1)C(=O)O [histidine] | −3.32
14 | CC[C@H](C)[C@H](N)C(=O)O [isoleucine] | −1.70
15 | CC(C)C[C@H](N)C(=O)O [leucine] | −1.52
16 | NCCCC[C@H](N)C(=O)O [lysine] | −3.05
17 | CSCC[C@H](N)C(=O)O [methionine] | −1.87
18 | CCCCCCCC/C=C\CCCCCCCC(=O)O [oleic acid] | 7.73
19 | N[C@@H](Cc1ccccc1)C(=O)O [phenylalanine] | −1.38
20 | O=C(O)[C@@H]1CCCN1 [proline] | −2.54
21 | N[C@@H](CO)C(=O)O [serine] | −3.07
22 | Cc1cn([C@H]2C[C@H](O)[C@@H](COP(=O)(O)O)O2)c(=O)[nH]c1=O [thymidine monophosphate] | −2.8
23 | Cc1cn([C@H]2C[C@H](O)[C@@H](CO)O2)c(=O)[nH]c1=O [thymidine] | −0.93
24 | Cc1c[nH]c(=O)[nH]c1=O [thymine] | −0.62
25 | N[C@@H](Cc1c[nH]c2ccccc12)C(=O)O [tryptophan] | −1.05
26 | O=c1ccn([C@@H]2O[C@H](CO)[C@@H](O)[C@H]2O)c(=O)[nH]1 [uridine] | −1.98
27 | CC(C)[C@H](N)C(=O)O [valine] | −2.26
